Laboratory results as given in patent publication US8192962B2, “Processes for detecting toxic substances” (Daikin Industries, Ltd., priority 2001, dated 2012).

Test system: Unknown protein yeast genes
Test: DNA chip mRNA expression in yeast, unknown protein yeast genes (Table 1)
Format: cell-based, Saccharomyces cerevisiae S288C
Summary of the method: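 Measured as treated-to-untreated fluorescence ratio on a full-genome yeast DNA chip. Cells (S288C, YPD, 25° C.) were exposed in log phase for two hours to one chemical, dosed to curb growth without killing.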

## [Cl][Hg][Cl] [(3), HgCl2]
Yeast gene YKL195W, incubated two hours with chemical substance
  The level of expressed mRNA in the presence of chemical substance/The level of expressed mRNA in the absence of chemical substance: 0.4
Yeast gene YKR091W, incubated two hours with chemical substance
  The level of expressed mRNA in the presence of chemical substance/The level of expressed mRNA in the absence of chemical substance: 0.9
Yeast gene YLR054C, incubated two hours with chemical substance
  The level of expressed mRNA in the presence of chemical substance/The level of expressed mRNA in the absence of chemical substance: 0.4
Yeast gene YLR149C, incubated two hours with chemical substance
  The level of expressed mRNA in the presence of chemical substance/The level of expressed mRNA in the absence of chemical substance: 3.4
Yeast gene YLR152C, incubated two hours with chemical substance
  The level of expressed mRNA in the presence of chemical substance/The level of expressed mRNA in the absence of chemical substance: 1.1
Yeast gene YLR194C, incubated two hours with chemical substance
  The level of expressed mRNA in the presence of chemical substance/The level of expressed mRNA in the absence of chemical substance: 1.3
Yeast gene YLR324W, incubated two hours with chemical substance
  The level of expressed mRNA in the presence of chemical substance/The level of expressed mRNA in the absence of chemical substance: 0.9
Yeast gene YLR350W, incubated two hours with chemical substance
  The level of expressed mRNA in the presence of chemical substance/The level of expressed mRNA in the absence of chemical substance: 3.2
Yeast gene YLR387C, incubated two hours with chemical substance
  The level of expressed mRNA in the presence of chemical substance/The level of expressed mRNA in the absence of chemical substance: 0.8
Yeast gene YLR460C
  The level of expressed mRNA in the presence of chemical substance/The level of expressed mRNA in the absence of chemical substance: 2.0
Yeast gene YML117W, incubated two hours with chemical substance
  The level of expressed mRNA in the presence of chemical substance/The level of expressed mRNA in the absence of chemical substance: 0.9
Yeast gene YMR009W, incubated two hours with chemical substance
  The level of expressed mRNA in the presence of chemical substance/The level of expressed mRNA in the absence of chemical substance: 0.5
Yeast gene YMR067C, incubated two hours with chemical substance
  The level of expressed mRNA in the presence of chemical substance/The level of expressed mRNA in the absence of chemical substance: 1.1
Yeast gene YMR090W
  The level of expressed mRNA in the presence of chemical substance/The level of expressed mRNA in the absence of chemical substance: 2.3
Yeast gene YMR095C, incubated two hours with chemical substance
  The level of expressed mRNA in the presence of chemical substance/The level of expressed mRNA in the absence of chemical substance: 1.6
Yeast gene YMR097C, incubated two hours with chemical substance
  The level of expressed mRNA in the presence of chemical substance/The level of expressed mRNA in the absence of chemical substance: 0.7
Yeast gene YMR102C, incubated two hours with chemical substance
  The level of expressed mRNA in the presence of chemical substance/The level of expressed mRNA in the absence of chemical substance: 1.1
Yeast gene YMR107W, incubated two hours with chemical substance
  The level of expressed mRNA in the presence of chemical substance/The level of expressed mRNA in the absence of chemical substance: 1.7
Yeast gene YMR180C, incubated two hours with chemical substance
  The level of expressed mRNA in the presence of chemical substance/The level of expressed mRNA in the absence of chemical substance: 1.0
Yeast gene YMR184W, incubated two hours with chemical substance
  The level of expressed mRNA in the presence of chemical substance/The level of expressed mRNA in the absence of chemical substance: 1.0
Yeast gene YMR191W, incubated two hours with chemical substance
  The level of expressed mRNA in the presence of chemical substance/The level of expressed mRNA in the absence of chemical substance: 1.9
Yeast gene YMR295C, incubated two hours with chemical substance
  The level of expressed mRNA in the presence of chemical substance/The level of expressed mRNA in the absence of chemical substance: 1.2
Yeast gene YMR316W, incubated two hours with chemical substance
  The level of expressed mRNA in the presence of chemical substance/The level of expressed mRNA in the absence of chemical substance: 1.1
Yeast gene YNL044W, incubated two hours with chemical substance
  The level of expressed mRNA in the presence of chemical substance/The level of expressed mRNA in the absence of chemical substance: 2.3
Yeast gene YNL074C, incubated two hours with chemical substance
  The level of expressed mRNA in the presence of chemical substance/The level of expressed mRNA in the absence of chemical substance: 1.8
Yeast gene YNL092W, incubated two hours with chemical substance
  The level of expressed mRNA in the presence of chemical substance/The level of expressed mRNA in the absence of chemical substance: 2.4
Yeast gene YNL115C, incubated two hours with chemical substance
  The level of expressed mRNA in the presence of chemical substance/The level of expressed mRNA in the absence of chemical substance: 1.6
Yeast gene YNL156C, incubated two hours with chemical substance
  The level of expressed mRNA in the presence of chemical substance/The level of expressed mRNA in the absence of chemical substance: 0.9
Yeast gene YNL234W, incubated two hours with chemical substance
  The level of expressed mRNA in the presence of chemical substance/The level of expressed mRNA in the absence of chemical substance: 0.6
Yeast gene YNL281W, incubated two hours with chemical substance
  The level of expressed mRNA in the presence of chemical substance/The level of expressed mRNA in the absence of chemical substance: 2.0
Yeast gene YNL305C, incubated two hours with chemical substance
  The level of expressed mRNA in the presence of chemical substance/The level of expressed mRNA in the absence of chemical substance: 2.7
Yeast gene YNR068C, incubated two hours with chemical substance
  The level of expressed mRNA in the presence of chemical substance/The level of expressed mRNA in the absence of chemical substance: 2.3
Yeast gene YOL032W, incubated two hours with chemical substance
  The level of expressed mRNA in the presence of chemical substance/The level of expressed mRNA in the absence of chemical substance: 2.0
Yeast gene YOL036W, incubated two hours with chemical substance
  The level of expressed mRNA in the presence of chemical substance/The level of expressed mRNA in the absence of chemical substance: 1.3
Yeast gene YOL047C, incubated two hours with chemical substance
  The level of expressed mRNA in the presence of chemical substance/The level of expressed mRNA in the absence of chemical substance: 1.1
Yeast gene YOL071W, incubated two hours with chemical substance
  The level of expressed mRNA in the presence of chemical substance/The level of expressed mRNA in the absence of chemical substance: 1.7
Yeast gene YOL082W, incubated two hours with chemical substance
  The level of expressed mRNA in the presence of chemical substance/The level of expressed mRNA in the absence of chemical substance: 1.6
Yeast gene YOL083W, incubated two hours with chemical substance
  The level of expressed mRNA in the presence of chemical substance/The level of expressed mRNA in the absence of chemical substance: 1.2
Yeast gene YOL117W, incubated two hours with chemical substance
  The level of expressed mRNA in the presence of chemical substance/The level of expressed mRNA in the absence of chemical substance: 0.5
Yeast gene YOL131W, incubated two hours with chemical substance
  The level of expressed mRNA in the presence of chemical substance/The level of expressed mRNA in the absence of chemical substance: 0.6
Yeast gene YOL150C
  The level of expressed mRNA in the presence of chemical substance/The level of expressed mRNA in the absence of chemical substance: 9.9
Yeast gene YOL162W, incubated two hours with chemical substance
  The level of expressed mRNA in the presence of chemical substance/The level of expressed mRNA in the absence of chemical substance: 1.7
Yeast gene YOR019W, incubated two hours with chemical substance
  The level of expressed mRNA in the presence of chemical substance/The level of expressed mRNA in the absence of chemical substance: 0.8
Yeast gene YOR197W, incubated two hours with chemical substance
  The level of expressed mRNA in the presence of chemical substance/The level of expressed mRNA in the absence of chemical substance: 1.1
Yeast gene YPL087W, incubated two hours with chemical substance
  The level of expressed mRNA in the presence of chemical substance/The level of expressed mRNA in the absence of chemical substance: 3.0
Yeast gene YPL196W, incubated two hours with chemical substance
  The level of expressed mRNA in the presence of chemical substance/The level of expressed mRNA in the absence of chemical substance: 1.3
Yeast gene YPL206C, incubated two hours with chemical substance
  The level of expressed mRNA in the presence of chemical substance/The level of expressed mRNA in the absence of chemical substance: 1.4
Yeast gene YPL222W, incubated two hours with chemical substance
  The level of expressed mRNA in the presence of chemical substance/The level of expressed mRNA in the absence of chemical substance: 0.8
Yeast gene YPR023C, incubated two hours with chemical substance
  The level of expressed mRNA in the presence of chemical substance/The level of expressed mRNA in the absence of chemical substance: 1.2
Yeast gene YPR151C, incubated two hours with chemical substance
  The level of expressed mRNA in the presence of chemical substance/The level of expressed mRNA in the absence of chemical substance: 1.5
